# Values of other authors as cited in patent US10450322B2, “Low molecular weight derivatives of carboxamide halogenated porphyrins, namely chlorins and bacteriochlorins, and their applications thereof” (LUZITIN, S.A., priority 2015, dated 2019).
# Settings: at physiological pH; cited from earlier work
smiles,measurement,value
"Oc1cccc(-c2c3nc(c(-c4cccc(O)c4)c4ccc([nH]4)c(-c4cccc(O)c4)c4nc(c(-c5cccc(O)c5)c5ccc2[nH]5)CC4)C=C3)c1 [temoporfin, 5,10,15,20-tetra (m-hydroxyphenyl)chlorin]",log POW,5.5
